Test results: ChEMBL document CHEMBL4354864, “Bicyclic α-Iminophosphonates as High Affinity Imidazoline I2 Receptor Ligands for Alzheimer's Disease” (J Med Chem, 2020)

Columns and labels:
[1] = organism: Homo sapiens; assay: Selectivity ratio of Ki for alpha2-AR high binding site in human brain frontal cortex to Ki for I2IR high binding site in human brain frontal cortex
[2] = Displacement of [3H]2-BFI from I2IR in human brain frontal cortex assessed as binding affinity at low affinity site incubated for 45 mins by liquid scintillation spectrometry; assay type: tissue-based
[3] = organism: Homo sapiens; assay: Displacement of [3H]2-BFI from I2IR in human brain frontal cortex assessed as binding affinity at high affinity site incubated for 45 mins by liquid scintillation spectrometry relative to control; assay type: tissue-based; design: concentration or dose not given beside the values
[4] = target: T1, Alpha-2A adrenergic receptor (Homo sapiens, UniProt P08913); assay: biochemical
T1 sequence (P08913 whole entry): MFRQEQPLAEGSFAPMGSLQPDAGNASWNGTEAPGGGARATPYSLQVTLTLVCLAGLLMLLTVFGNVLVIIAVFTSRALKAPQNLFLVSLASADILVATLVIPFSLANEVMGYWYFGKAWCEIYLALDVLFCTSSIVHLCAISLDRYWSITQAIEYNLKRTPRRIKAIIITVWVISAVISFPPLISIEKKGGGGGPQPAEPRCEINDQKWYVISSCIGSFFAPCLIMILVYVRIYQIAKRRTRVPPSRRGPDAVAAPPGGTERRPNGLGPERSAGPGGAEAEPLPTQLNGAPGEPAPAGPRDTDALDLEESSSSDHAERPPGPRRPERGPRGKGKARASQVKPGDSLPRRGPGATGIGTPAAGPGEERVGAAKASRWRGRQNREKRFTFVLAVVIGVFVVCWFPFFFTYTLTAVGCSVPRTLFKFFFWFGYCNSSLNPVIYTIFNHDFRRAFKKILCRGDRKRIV
Description: Displacement of [3H]RX821002 from alpha2-AR in human brain frontal cortex incubated for 30 mins by liquid scintillation spectrometry

[5] = Displacement of [3H]2-BFI from I2IR in human brain frontal cortex assessed as binding affinity at high affinity site incubated for 45 mins by liquid scintillation spectrometry; assay type: tissue-based
[6] = Displacement of [3H]2-BFI from I2IR in Wistar rat brain cortex incubated for 90 mins by radioligand binding assay
[7] = Displacement of [3H]2-BFI from I2IR in Sprague-Dawley rat brain cortex assessed as binding affinity at high binding site incubated for 45 mins by liquid scintillation spectrometry
[8] = organism: Rattus norvegicus; assay: Displacement of [3H]2-BFI from I2IR in Sprague-Dawley rat brain cortex assessed as binding affinity at high binding site incubated for 45 mins by liquid scintillation spectrometry relative to control
[9] = Displacement of [3H]2-BFI from I2IR in Sprague-Dawley rat brain cortex assessed as binding affinity at low binding site incubated for 45 mins by liquid scintillation spectrometry
[10] = target: Nischarin (Homo sapiens, UniProt Q9Y2I1); assay: Displacement of [3H]clonidine from I1IR in human brain frontal cortex in presence of adrenaline incubated for 45 mins by liquid scintillation spectrometry; assay type: tissue-based
[11] = organism: Homo sapiens; assay: Selectivity index, […] for alpha2-AR human brain frontal cortex […] in human brain frontal cortex
[12] = Displacement of [3H]2-BFI from I2IR in human brain frontal cortex incubated for 45 mins by liquid scintillation spectrometry; assay type: tissue-based
[13] = Displacement of [3H]2-BFI from I2IR in Sprague-Dawley rat brain cortex incubated for 45 mins by liquid scintillation spectrometry
[14] = Displacement of [3H]2-BFI from I2IR in Swiss mouse brain cortex incubated for 45 mins by liquid scintillation spectrometry

Chain of Nischarin (Q9Y2I1 whole entry): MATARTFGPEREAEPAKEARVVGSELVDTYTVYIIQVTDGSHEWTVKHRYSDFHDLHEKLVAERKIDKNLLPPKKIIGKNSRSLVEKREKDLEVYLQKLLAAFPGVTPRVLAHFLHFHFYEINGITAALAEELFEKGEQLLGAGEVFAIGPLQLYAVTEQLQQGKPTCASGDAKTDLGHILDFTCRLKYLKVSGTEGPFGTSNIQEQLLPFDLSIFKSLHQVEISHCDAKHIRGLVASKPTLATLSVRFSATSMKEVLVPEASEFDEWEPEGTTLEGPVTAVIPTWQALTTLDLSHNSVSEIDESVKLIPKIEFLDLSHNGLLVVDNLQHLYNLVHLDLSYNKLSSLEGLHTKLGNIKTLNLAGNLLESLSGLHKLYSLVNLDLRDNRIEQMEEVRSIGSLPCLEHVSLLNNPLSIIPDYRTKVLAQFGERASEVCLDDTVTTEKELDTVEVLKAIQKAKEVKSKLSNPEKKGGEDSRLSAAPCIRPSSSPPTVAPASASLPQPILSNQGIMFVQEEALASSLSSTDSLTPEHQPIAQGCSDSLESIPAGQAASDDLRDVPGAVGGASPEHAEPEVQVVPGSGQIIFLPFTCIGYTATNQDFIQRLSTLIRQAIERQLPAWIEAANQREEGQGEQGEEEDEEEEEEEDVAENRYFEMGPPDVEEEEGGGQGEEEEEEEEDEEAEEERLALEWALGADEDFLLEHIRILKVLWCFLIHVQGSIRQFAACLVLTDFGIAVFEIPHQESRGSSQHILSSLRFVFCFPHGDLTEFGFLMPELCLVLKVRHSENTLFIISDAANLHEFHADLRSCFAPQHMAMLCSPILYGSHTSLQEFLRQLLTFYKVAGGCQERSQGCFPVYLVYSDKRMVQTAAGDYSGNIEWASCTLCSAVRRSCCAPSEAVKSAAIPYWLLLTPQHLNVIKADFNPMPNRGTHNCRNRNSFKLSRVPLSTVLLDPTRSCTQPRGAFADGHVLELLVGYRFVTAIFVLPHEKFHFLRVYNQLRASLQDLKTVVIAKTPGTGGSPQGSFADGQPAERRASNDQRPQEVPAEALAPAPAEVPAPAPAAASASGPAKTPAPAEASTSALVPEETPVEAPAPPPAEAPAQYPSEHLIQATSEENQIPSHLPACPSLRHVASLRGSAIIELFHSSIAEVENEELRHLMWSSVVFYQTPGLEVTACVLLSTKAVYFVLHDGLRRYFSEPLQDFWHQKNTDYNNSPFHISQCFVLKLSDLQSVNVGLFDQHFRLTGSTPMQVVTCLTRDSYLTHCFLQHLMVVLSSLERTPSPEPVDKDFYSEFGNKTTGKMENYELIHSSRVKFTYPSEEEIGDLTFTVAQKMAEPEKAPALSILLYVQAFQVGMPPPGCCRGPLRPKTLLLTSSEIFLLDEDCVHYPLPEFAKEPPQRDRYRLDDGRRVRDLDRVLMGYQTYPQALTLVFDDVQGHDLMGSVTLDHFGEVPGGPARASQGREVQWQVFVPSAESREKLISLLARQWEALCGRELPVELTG

SMILES	Ki [4] [µM]	IC50 [10] [µM]	pKi [12]	other results
c1ccc2oc(-c3ncc[nH]3)cc2c1	6.76	–	–	Ratio Ki [1]: 7240; pKi [2]: 5.25; Activity [3]: 49%; pKi [5]: 9.03
c1ccc(-c2ncc3cc(-n4ccnc4)ccc3n2)cc1	2240	–	–	Ratio Ki [1]: 117000; pKi [2]: 5.45; Activity [3]: 29%; IC50 [6]: 0.596 µM; Ki [6]: 0.019 µM; pKi [5]: 7.72
c1ccc2oc(C3=NCCN3)cc2c1	0.229	–	–	Ratio Ki [1]: 1700; pKi [2]: 7.94; Activity [3]: 21%; Ki [5]: 0.00013 µM; pKi [5]: 9.87
Cn1c(C2=NCCN2)cc2ccccc21	–	–	–	pKi [2]: 3.82; Activity [3]: 51%; Ki [7]: 0.0014 µM; inhibition [8]: 58%; pKi [5]: 6.89; Ki [9]: 0.239 µM
CCOP(=O)(OCC)C1(c2ccccc2)N=CC2C(=O)N(CCc3ccccc3)C(=O)C21 (racemic)	170	0.0105	6.35	Ratio pKi [11]: 380
CCOP(=O)(OCC)C1(c2ccccc2)N=CC2C(=O)N(Cc3ccccc3)C(=O)C21 (racemic)	–	1.35	5.26	–
CCOP(=O)(OCC)C1(c2ccccc2)N=CC2C(=O)N(c3cccc([N+](=O)[O-])c3)C(=O)C21 (racemic)	–	5.5	6.81	–
CCOP(=O)(OCC)C1N=CC2C(=O)N(c3ccc(F)c(Cl)c3)C(=O)C21 (racemic)	0.00324	> 1000	< 3	–
CCOP(=O)(OCC)C1(c2ccccc2)N=CC2C(=O)N(c3cccc(Cl)c3)C(=O)C21 (racemic)	–	–	< 3	–
CCOP(=O)(OCC)C1(c2ccccc2)N=CC2C(=O)N(CC34CC5CC(CC(C5)C3)C4)C(=O)C21 (racemic)	49	–	7.01	Ratio pKi [11]: 501
CCOP(=O)(OCC)C1(c2ccc(F)cc2)N=CC2C(=O)N(c3ccccc3)C(=O)C21 (racemic)	0.17	–	< 3	–
CCOP(=O)(OCC)C1(c2ccccc2)N=CC2C(=O)N(c3cc(Cl)cc(Cl)c3)C(=O)C21 (racemic)	0.603	–	5.81	–
CCOP(=O)(OCC)C1(c2ccccc2)N=CC2C(=O)N(C)C(=O)C21 (racemic)	1.17	0.646	7.97	Ratio pKi [11]: 110
CCOP(=O)(OCC)C1(c2ccccc2)N=CC2C(=O)N(c3c(Cl)cc(Cl)cc3Cl)C(=O)C21 (racemic)	6.92	–	< 3	–
CCOP(=O)(OCC)C1(c2ccccc2)N=CC2C(=O)N(c3ccc(C)cc3)C(=O)C21 (racemic)	–	–	5.44	–
CCOP(=O)(OCC)C1(c2ccc(F)cc2)N=CC2C(=O)N(c3ccc(F)c(Cl)c3)C(=O)C21 (racemic)	417	–	7.55	Ratio pKi [11]: 14800
CCOP(=O)(OCC)C1N=CC2C(=O)N(C)C(=O)C21 (racemic)	0.00447	7.41	6.79	–
CCOP(=O)(OCC)C1(Cc2ccccc2)N=CC2C(=O)N(c3ccccc3)C(=O)C21 (racemic)	115	7.59	6.59	Ratio pKi [11]: 447
CCOP(=O)(OCC)C1(c2ccccc2)N=CC2C(=O)N(c3ccc(F)cc3)C(=O)C21 (racemic)	4.57	–	< 3	–
CCOP(=O)(OCC)C1(c2ccccc2)N=CC2C(=O)N(c3ccc(C(F)(F)F)cc3)C(=O)C21 (racemic)	18.6	–	< 3	–
CCOP(=O)(OCC)C1(c2ccccc2)N=CC2C(=O)N(c3ccccc3)C(=O)C21 (racemic)	–	0.182	10.28	–
CCOP(=O)(OCC)C1N=CC2C(=O)N(C3CCCCC3)C(=O)C21 (racemic)	0.000324	7.24	5.74	Ratio pKi [11]: 5
CCOP(=O)(OCC)C1(c2ccccc2)N=CC2C(=O)N(c3ccc(Cl)c(Cl)c3)C(=O)C21 (racemic)	–	–	< 3	–
CCOP(=O)(OCC)C1(c2ccccc2)N=CC2C(=O)N(c3cccnc3Cl)C(=O)C21 (racemic)	> 1000	–	7.96	Ratio pKi [11]: 91200

SMILES	Ki [4] [µM]	IC50 [10] [µM]	pKi [12]	other results
CCOP(=O)(OCC)C1(c2ccccc2)N=CC2C(=O)N(c3ccccc3Cl)C(=O)C21 (racemic)	0.708	–	5.09	Ratio Ki [1]: 24; pKi [2]: 4.74; Activity [3]: 25%; pKi [5]: 7.53
CCOP(=O)(OCC)C1(c2ccccc2)N=CC2C(=O)N(c3cccc4ccccc34)C(=O)C21 (racemic)	> 1000	–	3.11	–
CCOP(=O)(OCC)C1(c2ccccc2)N=CC2C(=O)N(c3ccc(Oc4ccccc4)cc3)C(=O)C21 (racemic)	–	–	6.96	–
CCOP(=O)(OCC)C1(c2ccccc2)N=CC2C(=O)N(c3ccc(OC)cc3)C(=O)C21 (racemic)	–	603	6.65	–
CCOP(=O)(OCC)C1(c2ccccc2)N=CC2C(=O)N(c3cccc(C(F)(F)F)c3)C(=O)C21 (racemic)	–	–	< 3	–
CCOP(=O)(OCC)C1(c2ccccc2)N=CC2C(=O)N(C3CCCCC3)C(=O)C21 (racemic)	–	0.0288	–	–
CCOP(=O)(OCC)C1N=CC2C(=O)N(c3ccc(OC)cc3)C(=O)C21 (racemic)	5.37e-05	0.00813	5.11	–
CCOP(=O)(OCC)C1(c2ccc(OC)cc2)N=CC2C(=O)N(c3ccc(F)c(Cl)c3)C(=O)C21 (racemic)	> 1000	–	7.87	Ratio pKi [11]: 74100
CCOP(=O)(OCC)C1(c2ccccc2)N=CC2C(=O)N(c3ccc(Cl)cc3)C(=O)C21 (racemic)	–	–	< 3	–
CCOP(=O)(OCC)C1N=CC2C(=O)N(c3ccccc3)C(=O)C21 (racemic)	9.55	3.39	7.73	–
CCOP(=O)(OCC)C1(c2ccccc2)N=CC2C(=O)N(C3Cc4ccccc4C3)C(=O)C21 (racemic)	363	–	3.84	Ratio Ki [1]: 2690; pKi [2]: 3.2; Activity [3]: 22%; pKi [5]: 6.87; Ratio pKi [11]: 2
CCOP(=O)(OCC)C1(c2ccccc2)N=CC2C(=O)N(C(C)(C)C)C(=O)C21 (racemic)	0.17	–	7.35	Ratio pKi [11]: 3
CCCN1C(=O)C2C=NC(c3ccccc3)(P(=O)(OCC)OCC)C2C1=O (racemic)	–	–	4.02	–
CCOP(=O)(OCC)C1(Cc2ccc(F)cc2)N=CC2C(=O)N(c3ccccc3)C(=O)C21 (racemic)	0.0631	–	5.35	–
CCOP(=O)(OCC)C1(c2ccccc2)N=CC2C(=O)N(c3cc([N+](=O)[O-])ccc3C)C(=O)C21 (racemic)	–	–	< 3	–
CCOP(=O)(OCC)C1(c2ccc(OC)cc2)N=CC2C(=O)N(c3ccccc3)C(=O)C21 (racemic)	141	–	3.39	–
CCOP(=O)(OCC)C1(c2ccccc2)N=CC2C(=O)N(CCc3ccc(F)cc3)C(=O)C21 (racemic)	2.24	–	< 3	–
CCOP(=O)(OCC)C1(c2ccccc2)N=CC2C(=O)N(CC)C(=O)C21 (racemic)	1.41	–	8.37	Ratio Ki [1]: 1260; pKi [2]: 5.86; Activity [3]: 62%; pKi [5]: 8.95; Ratio pKi [11]: 331
CCOP(=O)(OCC)C1(c2ccccc2)N=CC2C(=O)N(c3ccc(-c4ccccc4)cc3)C(=O)C21 (racemic)	–	0.0646	7.9	–
CCOP(=O)(OCC)C1(c2ccccc2)N=CC2C(=O)N(c3ccc(Br)cc3)C(=O)C21 (racemic)	–	–	< 3	–
c1ccc2c(c1)OCC(C1=NCCN1)O2 (stereo not given) [IDAZOXAN]	–	–	–	pKi [13]: 7.17; pKi [5]: 7.74; pKi [14]: 5.68
COc1nc(C)nc(Cl)c1N=C1NCCN1 [MOXONIDINE]	–	0.00355	–	–
C(=C\c1ccccc1)/C1=NCCN1 [TRACIZOLINE]	46.8	–	–	Ratio Ki [1]: 14100; pKi [2]: 6.48; Activity [3]: 38%; Ki [5]: 0.0033 µM; pKi [5]: 8.48
